Assay results reported in patent US20220031813A1, “INHIBITOR OF EXTRACELLULAR TRAP FORMATION IN LEUKOCYTES” (priority 2013, published 2022).

Assays:
[1] = bovine proteins; cited from earlier work
human neutrophils [2] = test: Specificity experiment: inhibition of NETs formation by DNA concentration in the culture supernatant; format: cell-based; conditions: n=3, p<0.01, FIG. 10
Procedure: About 1 hour after the isolation of the neutrophils described in “1. Method of isolating human neutrophils” in Example 2, the neutrophils were pre-treated. On an 8-well microslide (Cat. No. ib 80826 Ibidi (registered trademark)), the neutrophils were seeded in 400 μl of culture DMEM+2% human serum Alb (serum human albumin; Product No. A9080 Sigma+4 mM L-glutamine) at a rate of about 1.0×10^5 cells/well, and stimulated with PMA (final concentration: 25 nM, stock: 10 mM in DMSO, Sigma Prod No. P8139). At thirty minutes before the stimulation, and at every one hour or every two hours after the stimulation, 200 μg/ml of human lactoferrin (stock: 100 mg/ml, 200 μl; Cat. No. SIGL6793, SIGMA) was added to perform inhibition [FIG. 2].
The culture supernatant was recovered and centrifuged at 200×g for 10 minutes, and the supernatant was transferred to a new microscopic centrifuge tube. The DNA amount was measured by use of Picogreen dsDNA assay reagent (P11496 Invitrogen) in accordance with an accompanying protocol. Treatment with human lactoferrin at one hour and two hours after the stimulation was a similar effect to the prior pre-treatment, the DNA concentration in the culture supernatant decreased, resulting in suppression of the release of the DNAs by the NETs [FIG. 2]. […]

human neutrophils [3] = test: Rate of NETs formation in PMA-stimulated neutrophils after pre-treatment, counted by confocal microscopy; format: cell-based; conditions: pre-treatment 10 μM for 30 minutes, then PMA 25 nM

lactoperoxidase [reference compound]
Isoelectric point [1]: 8.0
inhibition of the formation of the NETs (human neutrophils [2]): Neither lactoperoxidase nor angiogenin inhibited

c1ccc2c(c1)[I+]c1ccccc1-2 [DPI, diphenyleneiodoniumchloride, reference compound]
formation of the NETs at plateau, compared with stimulation merely with PMA (human neutrophils [3]): ⅓
